The values below come from patent publication US6392098B1, “Conformationally restricted polyamines” (Wisconsin Alumni Research Foundation, priority 1997, dated 2002).

Structures can show the parent of a compound that is named as a salt.

By melting point is commonly meant the temperature, or range, at which the solid turns liquid.

Series [1] has as its system brain cancer cells U251MG-NCI. The series is described as follows: Growth of U251MG-NCI cells at fixed drug concentration (viable cells over days). Format: cell-based, human. How it is done: FIGS. 7 and 8 depict the effect of fixed doses of 10 μM and 40 μM of the subject compounds, respectively, on the growth of the human brain cancer cell line U251MG-NCI. Here, the X-axis represents time in days, and the Y-axis represents the total number of viable cells.
Human breast cancer cell line MCF7 was grown in Richter's Improved Modified Eagle's Medium supplemented with 10% fetal bovine serum (FBS) and 2.2 g/L sodium bicarbonate. Human brain cancer cell line U251MG-NCI was grown in Dulbecco's Modified Eagle's Medium supplemented with 10% FBS. Human lung cancer cell line A549 was grown in Ham's F-12K medium (Fisher Scientific, Itasca, Ill.), supplemented with 10% FBS and 2 mM L-glutamine. Human colon cancer cell line HT29 was cultured in McCoy's 5A medium (Gibco, BRL, Gaithersburg, Md.), supplemented with 10% FBS. Human prostate cancer cell line PC3 was grown in Dulbecco's Modified Eagles Medium supplemented with 5% FBS. The A549 and MCF7 cell lines were cultured in 100 units/mL penicillin and 100 μg/mL streptomycin. HT29 and U251MG cell lines were grown in 50 μg/mL gentamycin. PC3 cell lines were maintained in 1% antibiotic-antimycotic solution (Sigma, St. Louis, Mo.). […]
Here, the above-identified compounds were administered in a 10 μM dose to cultures of the human brain cancer cell line U251MG-NCI and evaluated according to the standard protocol described above. […]

The test system of series [2] is human brain cancer cells U251 MG. The series is described as follows: MTT cell survival assay, U251MG NCI. The series is classed as cell-based. The note with it: six days after drug treatment, read-out: Cytotoxic Activity Human Tumor Cell Lines ID50 U251MG NCl. The protocol: Human breast cancer cell line MCF7 was grown in Richter's Improved Modified Eagle's Medium supplemented with 10% fetal bovine serum (FBS) and 2.2 g/L sodium bicarbonate. Human brain cancer cell line U251MG-NCI was grown in Dulbecco's Modified Eagle's Medium supplemented with 10% FBS. […] Human prostate cancer cell line PC3 was grown in Dulbecco's Modified Eagles Medium supplemented with 5% FBS. […] The cell cultures were maintained at 37° C. in 5% CO2/95% humidified air.
Here, a conventional MTT assay was used to evaluate percent cell survival. Exponentially growing monolayer cells were plated in 96-well plates at a density of 500 cells per well and allowed to grow for 24 hours. Serial dilutions of the drugs were added to the wells. Six days after drug treatment, 25 μl of MTT solution (5 mg/ml) was added to each well and incubated for 4 hours at 37° C. Then 100 μl of lysis buffer (20% sodium dodecyl sulfate, 50% DMF, and 0.8% acetic acid, pH 4.7) was added to each well and incubated for an additional 22 hours. A microplate reader (“EMAX”-brand, Molecular Devices, Sunnyvale, Calif.) set at 570 nm was used to determine the optical density of the cultures. Results are expressed as a ratio of the optical density in drug-treated wells to the optical density in wells treated with vehicle only.
The ID50 is the drug concentration that killed 50% of the cultured cells.
Background: Formazan colour is commonly taken as a measure of viable cells.

For the molecule `CCNCCCNCC1CC1CNCCCNCC` (stereo not drawn) (as salt: hydrochloride) [SL-11038, N-Ethyl-N′-(2-(3′-ethylamino-propylaminomethyl)-trans-cyclopropylmethyl)-propane-1,3-diamine tetrahydrochloride], the melting point was 270 °C (dec.). Still for that read-out and setting: with `CCNCCCNC[C@H]1CC[C@H]1CNCCCNCC` (as salt: hydrochloride) [SL-11043, N-Ethyl-N′-(2-(3′-ethylamino-propylaminomethyl)-cis-cyclobutylmethyl)-propane1,3-diamine tetrahydrochloride] the figure was 92 to 93 °C. For `CCNCCCNC1CCC1NCCCNCC` (centres unmarked) [SL-11034], in series [1] (40 μM concentration), the “effect on growth of U251MG-NCI cells” value is “marked inhibition of cell growth”. With `CCNCCCNC[C@@H]1C[C@@H]1CNCCCNCC` (as salt: hydrochloride) [SL-11037, N-Ethyl-N′-(2-(3′-ethylamino-propylaminomethyl)-cis-cyclopropylmethyl)-propane 1,3-diamine tetrahydrochloride], the melting point is 240 °C (dec.).

With `CCNCCCNCC1CCC1CNCCCNCC` (stereo not drawn) (as salt: hydrochloride) [SL-11044, N-Ethyl-N′-(2-(3′-ethylamino-propylaminomethyl)-trans-cyclobutylmethyl)-propane1,3-diamine tetrahydrochloride], the melting point was in the range of 77 to 78 °C. With `CCNCCCNCC1CC1CNCCCNCC` (stereo not drawn) [SL-11038, N-Ethyl-N′-(2-(3′-ethylamino-propylaminomethyl)-trans-cyclopropylmethyl)-propane-1,3-diamine tetrahydrochloride], the IC50 in series [2] stood at 100 nM. `CCNCCCNC1CC1NCCCNCC` (centres unmarked) [SL-11027]: the melting point was 240 °C (dec.). In series [1] (10 μM concentration), the “effect on growth of U251MG-NCI cells” value was “marked inhibition of cell growth”.
